Earlier results in PubChem BioAssay AID1259409 (Chemical Carcinogenesis Research Information System (CCRIS), 2018).

System: rodent chemically induced tumor inhibition, incidence and multiplicity
Test: CCRIS tumor inhibitor studies
Settings: Promoter: NONE USED

SMILES: Cc1cc(C(C)(C)C)c(O)c(C(C)(C)C)c1
- tumour outcome (control, treated, inhibition, significance) (Carcinogen: N-BIS(2-HYDROXYPROPYL)NITROSAMINE, 53609-64-6, Dose [Inhibitor]: 0, 1% IN DIET FOR 30 WK BEGINNING POST CARCINOGEN TREATMENT (STUDY DURATION: 32 WK), Route [Inhibitor]: ORAL, Species: RAT, Strain/Sex: F344/MALE, Target Tissue: Type of Lesion: LUNG: ADENOMA, Dose [Carcinogen]: 0.1% IN DRINKING WATER FOR 2 WK): 100%, 85%, 15%, not calculated
- tumour outcome (control, treated, inhibition, significance) (Carcinogen: N-BIS(2-HYDROXYPROPYL)NITROSAMINE, 53609-64-6, Dose [Inhibitor]: 0, 1% IN DIET FOR 30 WK BEGINNING POST CARCINOGEN TREATMENT (STUDY DURATION: 32 WK), Route [Inhibitor]: ORAL, Species: RAT, Strain/Sex: F344/MALE, Target Tissue: Type of Lesion: LUNG: CARCINOMA, Dose [Carcinogen]: 0.1% IN DRINKING WATER FOR 2 WK): 45%, 5%, 89%, p<0.01
- tumour outcome (control, treated, inhibition, significance) (Carcinogen: N-BIS(2-HYDROXYPROPYL)NITROSAMINE, 53609-64-6, Dose [Inhibitor]: 0, 1% IN DIET FOR 30 WK BEGINNING POST CARCINOGEN TREATMENT (STUDY DURATION: 32 WK), Route [Inhibitor]: ORAL, Species: RAT, Strain/Sex: F344/MALE, Target Tissue: Type of Lesion: THYROID: ADENOMA, Dose [Carcinogen]: 0.1% IN DRINKING WATER FOR 2 WK): 5%, 60%, -1100%, not calculated
- tumour outcome (control, treated, inhibition, significance) (Carcinogen: N-BIS(2-HYDROXYPROPYL)NITROSAMINE, 53609-64-6, Dose [Inhibitor]: 0, 1% IN DIET FOR 30 WK BEGINNING POST CARCINOGEN TREATMENT (STUDY DURATION: 32 WK), Route [Inhibitor]: ORAL, Species: RAT, Strain/Sex: F344/MALE, Target Tissue: Type of Lesion: THYROID: CARCINOMA, Dose [Carcinogen]: 0.1% IN DRINKING WATER FOR 2 WK): 20%, 15%, 25%, not calculated
- tumour outcome (control, treated, inhibition, significance) (Carcinogen: N-METHYL-N'-NITRO-N-NITROSOGUANIDINE, 70-25-7, N-ETHYL-N-HYDROXYETHYLNITROSAMINE, 13147-25-6, N-METHYLBENZYLNITROSAM, Carcinogen: N-METHYL-N'-NITRO-N-NITROSOGUANIDINE, 70-25-7, N-ETHYL-N-HYDROXYETHYLNITROSAMINE, 13147-25-6, N-METHYLBENZYLNITROSAM, Dose [Inhibitor]: 0, 0.7% IN DIET FOR 36 WK (STUDY DURATION: 36 WK), Route [Inhibitor]: ORAL, Species: RAT, Strain/Sex: F344/MALE, Target Tissue: Type of Lesion: COLON: CARCINOMA, Dose [Carcinogen]: 100 MG/KG BW MNNG ONCE, 750 MG/KG BW EHEN ONCE, 0.5 MG/KG BW MBN TWICE, 40 MG/KG BW DMH 4 TIMES, 0.05% DBN IN DRINKING W): 10/18 (56%), 0/18 (0%), 100%, p<0.01
- tumour outcome (control, treated, inhibition, significance) (Carcinogen: N-METHYL-N'-NITRO-N-NITROSOGUANIDINE, 70-25-7, N-ETHYL-N-HYDROXYETHYLNITROSAMINE, 13147-25-6, N-METHYLBENZYLNITROSAM, Carcinogen: N-METHYL-N'-NITRO-N-NITROSOGUANIDINE, 70-25-7, N-ETHYL-N-HYDROXYETHYLNITROSAMINE, 13147-25-6, N-METHYLBENZYLNITROSAM, Dose [Inhibitor]: 0, 0.7% IN DIET FOR 36 WK (STUDY DURATION: 36 WK), Route [Inhibitor]: ORAL, Species: RAT, Strain/Sex: F344/MALE, Target Tissue: Type of Lesion: KIDNEY: RENAL CELL TUMOR, Dose [Carcinogen]: 100 MG/KG BW MNNG ONCE, 750 MG/KG BW EHEN ONCE, 0.5 MG/KG BW MBN TWICE, 40 MG/KG BW DMH 4 TIMES, 0.05% DBN IN DRINKING W): 8/18 (44%), 1/18 (6%), 86%, p<0.01
- outcome (Carcinogen: N-METHYL-N'-NITRO-N-NITROSOGUANIDINE, 70-25-7, N-ETHYL-N-HYDROXYETHYLNITROSAMINE, 13147-25-6, N-METHYLBENZYLNITROSAM, Carcinogen: N-METHYL-N'-NITRO-N-NITROSOGUANIDINE, 70-25-7, N-ETHYL-N-HYDROXYETHYLNITROSAMINE, 13147-25-6, N-METHYLBENZYLNITROSAM, Dose [Inhibitor]: 0, 0.7% IN DIET FOR 36 WK (STUDY DURATION: 36 WK), Route [Inhibitor]: ORAL, Species: RAT, Strain/Sex: F344/MALE, Target Tissue: Type of Lesion: THYROID GLAND: ADENOMA OR CARCINOMA, Dose [Carcinogen]: 100 MG/KG BW MNNG ONCE, 750 MG/KG BW EHEN ONCE, 0.5 MG/KG BW MBN TWICE, 40 MG/KG BW DMH 4 TIMES, 0.05% DBN IN DRINKING W): 0/18 (0%), 6/18 (33%), -333%, p<0.05
- tumour outcome (control, treated, inhibition, significance) (Carcinogen: N-METHYL-N-NITROSOUREA, 684-93-5, Dose [Inhibitor]: 0.3% IN DIET FROM WEANING ONWARD (STUDY DURATION: 6 MO AFTER CARCINOGEN ADMINISTRATION), Route [Inhibitor]: ORAL, Species: RAT, Strain/Sex: SPRAGUE-DAWLEY/FEMALE, Target Tissue: Type of Lesion: MAMMARY GLAND: ADENOCARCINOMA, Dose [Carcinogen]: SINGLE INJECTION VIA DORSAL TAIL VEIN AT 5 MG/100 G BODY WEIGHT. MNU WAS WET IN 3% ACETIC ACID + DISSOLVED IN WATER (DOU): 21/30 (70%), 22/30 (73%), -4%, not significant
- tumour outcome (control, treated, inhibition, significance) (Carcinogen: N-METHYL-N-NITROSOUREA, 684-93-5, Dose [Inhibitor]: 0.3% IN HIGH POLYUNSATURATED FAT DIET DAILY STARTING 29 D BEFORE CARCINOGEN TREATMENT AND CONTINUING FOR THE DURATION OF, Route [Inhibitor]: ORAL, Species: RAT, Strain/Sex: SPRAGUE-DAWLEY/FEMALE, Target Tissue: Type of Lesion: MAMMARY GLAND: ADENOCARCINOMA, Dose [Carcinogen]: 5 MG/100 G BW ONCE AT 50 D OF AGE): 70%, 73%, -4%, not calculated
- tumour outcome (control, treated, inhibition, significance) (Carcinogen: URETHANE, 51-79-6, Dose [Inhibitor]: 0.75% IN DIET 1/WK FOR 24 HR AFTER OVERNIGHT FAST FOR 8 WK 1 WK AFTER CARCINOGEN TREATMENT (STUDY DURATION: 4 MO), Route [Inhibitor]: ORAL, Species: MOUSE, Strain/Sex: STRAIN-A/MALE, Target Tissue: Type of Lesion: LUNG: TYPE II ALVEOLAR CELL TUMORS, CLARA CELL TUMORS, Dose [Carcinogen]: 250 MG/KG, ONCE AT 8 WK OF AGE): 85%, 91%, -7%, not significant
- tumour outcome (control, treated, inhibition, significance) (Carcinogen: URETHANE, 51-79-6, Dose [Inhibitor]: 0.75% IN DIET 1/WK FOR 24 HR AFTER OVERNIGHT FAST FOR 8 WK 1 WK AFTER CARCINOGEN TREATMENT (STUDY DURATION: 4 MO), Route [Inhibitor]: ORAL, Species: MOUSE, Strain/Sex: STRAIN-A/MALE, Target Tissue: Type of Lesion: LUNG: TYPE II ALVEOLAR CELL TUMORS, CLARA CELL TUMORS, Dose [Carcinogen]: 500 MG/KG, ONCE AT 8 WK OF AGE): 100%, 100%, 0%, not significant
- tumour outcome (control, treated, inhibition, significance) (Carcinogen: URETHANE, 51-79-6, Dose [Inhibitor]: 0.75% IN DIET 1/WK FOR 24 HR AFTER OVERNIGHT FAST FOR 8 WK BEGINNING 1 WK POST CARCINOGEN TREATMENT (STUDY DURATION: 4 M, Route [Inhibitor]: ORAL, Species: MOUSE, Strain/Sex: STRAIN A/MALE, Target Tissue: Type of Lesion: LUNG: TYPE II ALVEOLAR CELL TUMORS, CLARA CELL TUMORS, Dose [Carcinogen]: 500 MG/KG, ONCE AT 8 WK OF AGE): 100%, 97%, 3%, not significant
- outcome (Carcinogen: URETHANE, 51-79-6, Dose [Inhibitor]: 0.75% IN DIET FOR 2 WK BEFORE CARCINOGEN TREATMENT (STUDY DURATION: 4 MO), Route [Inhibitor]: ORAL, Species: MOUSE, Strain/Sex: STRAIN-A/MALE, Target Tissue: Type of Lesion: LUNG: TYPE II ALVEOLAR CELL TUMORS, CLARA CELL TUMORS, Dose [Carcinogen]: 1000 MG/KG, ONCE): 100%, 100%, o%, not significant
- tumour outcome (control, treated, inhibition, significance) (Carcinogen: URETHANE, 51-79-6, Dose [Inhibitor]: 0.75% IN DIET, DAILY BEGINNING 1 D AFTER CARCINOGEN TREATMENT FOR 8 WK (STUDY DURATION: 4 MO), Route [Inhibitor]: ORAL, Species: MOUSE, Strain/Sex: STRAIN-A/MALE, Target Tissue: Type of Lesion: LUNG: TYPE II ALVEOLAR CELL TUMORS, CLARA CELL TUMORS, Dose [Carcinogen]: 250 MG/KG, ONCE AT 8 WK OF AGE): 96%, 90%, 6%, not significant
- tumour outcome (control, treated, inhibition, significance) (Carcinogen: URETHANE, 51-79-6, Dose [Inhibitor]: 0.75% IN DIET, DAILY BEGINNING 1 D AFTER CARCINOGEN TREATMENT FOR 8 WK (STUDY DURATION: 40 MO), Route [Inhibitor]: ORAL, Species: MOUSE, Strain/Sex: STRAIN-A/MALE, Target Tissue: Type of Lesion: LUNG: TYPE II ALVEOLAR CELL TUMORS, CLARA CELL TUMORS, Dose [Carcinogen]: 500 MG/KG, ONCE AT 8 WK OF AGE): 100%, 100%, 0%, not significant
- tumour outcome (control, treated, inhibition, significance) (Carcinogen: URETHANE, 51-79-6, Dose [Inhibitor]: 300 MG/KG 1 WK AFTER CARCINOGEN DOSE 1/WK FOR 8 WK (STUDY DURATION: 4 MO), Route [Inhibitor]: INTRAPERITONEAL, Species: MOUSE, Strain/Sex: STRAIN-A/MALE, Target Tissue: Type of Lesion: LUNG: TYPE II ALVEOLAR CELL TUMORS, CLARA CELL TUMORS, Dose [Carcinogen]: 500 MG/KG, ONCE AT 8 WK OF AGE): 97%, 100%, -3%, not significant
